Common to all, as to format: functional
In one test the test system is MCF7. Nature of the test: Antitumor activity against human MCF7 cells by MTT assay. For orientation: Tetrazolium dyes change colour on reduction, which living cells bring about.
For a further test, the system named is HCT-116. The test can be described thus: Antitumor activity against human HCT116 cells by MTT assay.
Test [1] deals with T1, Thioredoxin reductase (Homo sapiens) (UniProt Q16881+Q9NNW7+Q86VQ6). Nature of the test: Inhibition of human thioredoxin signalling assessed as inhibition of insulin reduction at 50 uM.
A further test relates to MDA-MB-468. Nature of the test: Antitumor activity against human MDA-MB-468 cells by MTT assay.
For test [2], the target named is T1, Thioredoxin reductase (Homo sapiens). Nature of the test: Inhibition of human thioredoxin signalling assessed as inhibition of insulin reduction at 100 uM.
The subject of test [3] is Panel NCI-60 (60 carcinoma cell lines). Nature of the test: Antitumor activity against human NCI60 cells.
The target of test [4] is T1, Thioredoxin reductase (Homo sapiens). The test can be described thus: Inhibition of human thioredoxin signalling assessed as inhibition of insulin reduction at 10 uM.
Test [5] shares this target. The test can be described thus: Inhibition of human thioredoxin signalling assessed as inhibition of insulin reduction at 25 uM.
In another test the test system is HT-29. The test can be described thus: Antitumor activity against human HT29 cells by MTT assay.

Turning to `O=C1C=CC(O)(c2nc3ccccc3s2)C=C1`, the GI50 (in general, the concentration giving 50% growth inhibition) with MCF7 was 440 nM; in the test with HCT-116, 110 nM; with MDA-MB-468, 410 nM; in test [3] it was 230 nM; with HT-29, 590 nM. In addition, the inhibition – broadly, the drop in the measured response relative to a control, in per cent – is 94.8% in [1], 95.8% in test [2], 13.2% in test [4] and 35.1% in [5].

(Values after ChEMBL document CHEMBL1149488, “Antitumour properties of fluorinated benzothiazole-substituted hydroxycyclohexa-2,5-dienones ('quinols')” (2006).)
